One data set concerns the target T1, hNav1.7 (Homo sapiens, UniProt Q15858).
T1 construct: expressed in transfected cells
In words: Tritiated sulfonamide competitive binding to membranes from cells expressing hNav1.7 and the β1 subunit (LBA). As to conditions: competition with 100 pM [3H]compound, 18 h, room temperature; read-out: Nav1.7 (LBA). The protocol:
Tritiated Sulfonamide Binding to Membranes Isolated from Cells that Heterologously Express hNav1.7 and the β1 Subunit
Preparation of membranes containing recombinantly expressed sodium channels: Frozen recombinant cell pellets were thawed on ice and diluted to 4 times the cell pellet weight with ice cold 50 mM Tris HCl, pH 7.4 buffer. The cell suspensions were homogenized on ice using a motorized glass dounce homogenizer. Homogenates were further diluted 8.4 times with ice cold 50 mM Tris HCl, pH 7.4 buffer and then centrifuged at 200×g at 4° C. for 15 min. The supernatants were collected and centrifuged at 10000×g at 4° C. for 50 min. The pellets were then re-suspended in 100 mM NaCl, 20 mM Tris HCl, pH 7.4 buffer containing 1% v/v protease inhibitors (Calbiochem) and re-homogenized on ice. The homogenized membranes were then processed through a syringe equipped with a 26 gauge needle. Protein concentrations were determined by Bradford Assay and the membranes were stored at −80° C.
Saturation experiments. A competitive NaV1.7 inhibitor having a methyl group was tritiated. Three tritiums were incorporated in place of methyl hydrogens to generate [^3H]compound. Binding of this radioligand was preformed in 5 mL borosilicate glass test tubes at room temperature. Binding was initiated by adding membranes to increasing concentrations of [^3H]compound in 100 mM NaCl, 20 mM Tris HCl, pH 7.4 buffer containing 0.01% w/v bovine serum albumin (BSA) for 18 h. Non-specific binding was determined in the presence of 1 μM unlabelled compound. After 18 h, the reactants were filtered through GF/C glass fiber filters presoaked in 0.5% w/v polyethylene imine. Filters were washed with 15 mL ice cold 100 mM NaCl, 20 mM Tris HCl, pH 7.4 buffer containing 0.25% BSA to separate bound from free ligand. [^3H]compound bound to filters was quantified by liquid scintillation counting.
Binding reactions were performed in 96-well polypropylene plates at room temperature for 18 h. In 360 μL, membranes were incubated with 100 pM [^3H]compound and increasing concentrations of Test Compound. Non-specific binding was defined in the presence of 1 μM unlabelled compound. Reactions were transferred and filtered through 96-well glass fiber/C filter plates presoaked with 0.5% polyethylene imine. The filtered reactions were washed 5 times with 200 μL ice cold buffer containing 0.25% BSA. Bound radioactivity was determined by liquid scintillation counting.
Data Analysis: For saturation experiments, non-specific binding was subtracted from total binding to provide specific binding and these values were recalculated in terms of pmol ligand bound per mg protein. Saturation curves were constructed and dissociation constants were calculated using the single site ligand binding model: Beq=(Bmax*X)/(X+Kd), where Beq is the amount of ligand bound at equilibrium, Bmax is the maximum receptor density, Kd is the dissociation constant for the ligand, and X is the free ligand concentration. For competition studies percent inhibition was determined and IC50 values were calculated using a 4 parameter logistic model (% inhibition=(A+((B−A)/(1+((x/C)^D)))) using XLfit, where A and B are the maximal and minimum inhibition respectively, C is the IC50 concentration and D is the (Hill) slope.

A further data set concerns the target T2, NaV1.7 (Homo sapiens, UniProt Q15858).
T2 construct: expression vector containing the full-length cDNA coding for the desired human sodium channel α-subunit; expressed in transfected cells; host or cells: HEK-293
Put plainly: Patch voltage clamp electrophysiology assay (EP), NaV1.7 in HEK-293 cells. Format: cell-based. The conditions noted are these: HEK-293, β1 coexpressed, held at -60 mV (inactivated state). The text has this:
(§1) Electrophysiological Assay (EP) (In Vitro Assay)
(§2) Patch voltage clamp electrophysiology allows for the direct measurement and quantification of block of voltage-gated sodium channels (NaV's), and allows the determination of the time- and voltage-dependence of block which has been interpreted as differential binding to the resting, open, and inactivated states of the sodium channel (Hille, B., Journal of General Physiology (1977), 69: 497-515).
(§3) The following patch voltage clamp electrophysiology studies were performed on representative compounds of the invention using human embryonic kidney cells (HEK), permanently transfected with an expression vector containing the full-length cDNA coding for the desired human sodium channel α-subunit, grown in culture media containing 10% FBS, 1% PSG, and 0.5 mg/mL G418 at 37° C. with 5% CO2. […] NaV1.7 and NaV1.5 cDNAs (NM_002977 and AC137587; SCN5A, respectively) were stably expressed in HEK-293 cells. The β1 subunit was coexpressed in both the NaV1.7 and NaV1.5 cell lines.
(§4) Sodium currents were measured using the patch clamp technique in the whole-cell configuration using either a PatchXpress automated voltage clamp or manually using an Axopatch 200B (Axon Instruments) or Model 2400 (A-M systems) amplifier. The manual voltage clamp protocol was as follows: Borosilicate glass micropipettes were fire-polished to a tip diameter yielding a resistance of 2-4 Mohms in the working solutions. The pipette was filled with a solution comprised of: 5 mM NaCl, 10 mM CsCl, 120 mM CsF, 0.1 mM CaCl2, 2 mM MgCl2, 10 mM HEPES, 10 mM EGTA; and adjusted to pH 7.2 with CsOH. The external solution had the following composition: 140 mM NaCl, 5 mM KCl, 2 mM CaCl2, 1 mM MgCl2, 10 mM HEPES; and adjusted to pH 7.4 with NaOH. In some studies, the external sodium was reduced by equimolar replacement with choline. Osmolarity in the CsF internal and NaCl external solutions was adjusted to 300 mOsm/kg and 310 mOsm/kg with glucose, respectively. All recordings were performed at ambient temperature in a bath chamber with a volume of 150 μL. Control sodium currents were measured in 0.5% DMSO. Controls and representative compounds of the invention were applied to the recording chamber through a 4-pinch or 8-pinch valve bath perfusion system manufactured by ALA Scientific Instruments.
(§5) Currents were recorded at 40 kHz sampling frequency, filtered at […], and stored using a Digidata-1322A analogue/digital interface with the pClamp software (Axon Instruments). Series resistance compensation was applied (60-80%). […] All statistics in this study are given as mean±SD.
(§6) The membrane potential was maintained at a voltage where inactivation of the channel is complete (which was −60 mV for both NaV1.7 and NaV1.5). The voltage is then stepped back to a very negative (Vhold=[…]) voltage for 20 ms and then a test pulse is applied to quantify the compound block. The 20 ms brief repolarization was long enough for compound-free channels to completely recover from fast inactivation, but the compound-bound channels recovered more slowly such that negligible recovery could occur during this interval. The percent decrease in sodium current following wash-on of compound was taken as the percent block of sodium channels.

For the next data set, the target named is T3, NaV1.5 (Homo sapiens, UniProt Q14524).
T3 construct: expression vector containing the full-length cDNA coding for the desired human sodium channel α-subunit; expressed in transfected cells; host or cells: HEK-293
In words: Patch voltage clamp electrophysiology assay (EP), NaV1.5 in HEK-293 cells. Type of data set: cell-based. The conditions noted are these: HEK-293, β1 coexpressed, held at -60 mV (inactivated state).
Source text: as §1, §2, §3, §4, §5, §6

T3 sequence (Q14524 whole entry): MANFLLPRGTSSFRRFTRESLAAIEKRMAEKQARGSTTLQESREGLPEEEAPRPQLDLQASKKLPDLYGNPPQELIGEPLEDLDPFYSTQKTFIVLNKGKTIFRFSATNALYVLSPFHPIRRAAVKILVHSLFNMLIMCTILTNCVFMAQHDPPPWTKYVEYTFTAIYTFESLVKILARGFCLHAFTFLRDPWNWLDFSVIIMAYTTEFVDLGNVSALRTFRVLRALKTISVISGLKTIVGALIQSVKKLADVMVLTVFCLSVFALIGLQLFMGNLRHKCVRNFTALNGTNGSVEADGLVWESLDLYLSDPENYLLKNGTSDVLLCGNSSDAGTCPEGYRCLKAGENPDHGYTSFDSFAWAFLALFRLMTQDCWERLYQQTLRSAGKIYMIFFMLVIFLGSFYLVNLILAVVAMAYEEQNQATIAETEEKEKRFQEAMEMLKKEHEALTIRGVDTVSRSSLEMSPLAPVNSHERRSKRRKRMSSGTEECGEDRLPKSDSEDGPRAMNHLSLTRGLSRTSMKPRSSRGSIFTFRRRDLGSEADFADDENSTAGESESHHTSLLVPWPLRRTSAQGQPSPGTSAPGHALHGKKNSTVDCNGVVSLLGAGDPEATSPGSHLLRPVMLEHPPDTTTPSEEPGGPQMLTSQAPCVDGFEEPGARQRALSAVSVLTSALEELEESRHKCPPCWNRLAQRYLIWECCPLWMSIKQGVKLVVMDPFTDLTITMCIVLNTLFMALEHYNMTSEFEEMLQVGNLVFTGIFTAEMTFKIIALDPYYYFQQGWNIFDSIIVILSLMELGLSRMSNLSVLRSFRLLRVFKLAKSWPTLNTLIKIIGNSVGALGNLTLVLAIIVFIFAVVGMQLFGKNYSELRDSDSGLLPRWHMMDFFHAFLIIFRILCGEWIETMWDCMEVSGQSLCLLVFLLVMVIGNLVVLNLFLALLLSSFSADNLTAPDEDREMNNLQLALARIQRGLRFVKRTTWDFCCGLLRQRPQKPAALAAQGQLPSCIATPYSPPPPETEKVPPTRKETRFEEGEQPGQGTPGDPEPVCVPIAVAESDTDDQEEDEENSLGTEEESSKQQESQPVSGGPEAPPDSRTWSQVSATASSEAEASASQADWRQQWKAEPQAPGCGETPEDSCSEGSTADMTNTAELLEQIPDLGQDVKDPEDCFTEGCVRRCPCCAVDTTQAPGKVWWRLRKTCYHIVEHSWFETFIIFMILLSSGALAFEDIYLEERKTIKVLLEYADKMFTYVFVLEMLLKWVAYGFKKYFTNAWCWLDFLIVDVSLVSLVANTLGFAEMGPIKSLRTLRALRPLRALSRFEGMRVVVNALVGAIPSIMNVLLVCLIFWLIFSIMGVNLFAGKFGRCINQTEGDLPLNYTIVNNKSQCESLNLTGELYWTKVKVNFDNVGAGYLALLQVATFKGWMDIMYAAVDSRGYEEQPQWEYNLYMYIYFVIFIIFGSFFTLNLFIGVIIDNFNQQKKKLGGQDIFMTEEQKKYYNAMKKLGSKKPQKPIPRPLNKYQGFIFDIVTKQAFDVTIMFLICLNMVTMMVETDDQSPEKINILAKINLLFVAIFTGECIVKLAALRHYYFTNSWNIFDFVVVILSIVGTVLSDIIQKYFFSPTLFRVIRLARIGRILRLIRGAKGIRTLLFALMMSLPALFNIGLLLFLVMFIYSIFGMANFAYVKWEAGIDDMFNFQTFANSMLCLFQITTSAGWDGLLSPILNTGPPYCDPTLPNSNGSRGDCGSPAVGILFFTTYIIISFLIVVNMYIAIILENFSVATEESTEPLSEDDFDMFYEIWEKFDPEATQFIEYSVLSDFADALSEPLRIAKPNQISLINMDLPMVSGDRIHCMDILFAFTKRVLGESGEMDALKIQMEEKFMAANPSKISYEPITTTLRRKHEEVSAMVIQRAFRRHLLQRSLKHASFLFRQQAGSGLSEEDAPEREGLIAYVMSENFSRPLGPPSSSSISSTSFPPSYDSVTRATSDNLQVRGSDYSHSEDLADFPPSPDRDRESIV
T1 sequence (Q15858 1-1977 isoform Q15858-3): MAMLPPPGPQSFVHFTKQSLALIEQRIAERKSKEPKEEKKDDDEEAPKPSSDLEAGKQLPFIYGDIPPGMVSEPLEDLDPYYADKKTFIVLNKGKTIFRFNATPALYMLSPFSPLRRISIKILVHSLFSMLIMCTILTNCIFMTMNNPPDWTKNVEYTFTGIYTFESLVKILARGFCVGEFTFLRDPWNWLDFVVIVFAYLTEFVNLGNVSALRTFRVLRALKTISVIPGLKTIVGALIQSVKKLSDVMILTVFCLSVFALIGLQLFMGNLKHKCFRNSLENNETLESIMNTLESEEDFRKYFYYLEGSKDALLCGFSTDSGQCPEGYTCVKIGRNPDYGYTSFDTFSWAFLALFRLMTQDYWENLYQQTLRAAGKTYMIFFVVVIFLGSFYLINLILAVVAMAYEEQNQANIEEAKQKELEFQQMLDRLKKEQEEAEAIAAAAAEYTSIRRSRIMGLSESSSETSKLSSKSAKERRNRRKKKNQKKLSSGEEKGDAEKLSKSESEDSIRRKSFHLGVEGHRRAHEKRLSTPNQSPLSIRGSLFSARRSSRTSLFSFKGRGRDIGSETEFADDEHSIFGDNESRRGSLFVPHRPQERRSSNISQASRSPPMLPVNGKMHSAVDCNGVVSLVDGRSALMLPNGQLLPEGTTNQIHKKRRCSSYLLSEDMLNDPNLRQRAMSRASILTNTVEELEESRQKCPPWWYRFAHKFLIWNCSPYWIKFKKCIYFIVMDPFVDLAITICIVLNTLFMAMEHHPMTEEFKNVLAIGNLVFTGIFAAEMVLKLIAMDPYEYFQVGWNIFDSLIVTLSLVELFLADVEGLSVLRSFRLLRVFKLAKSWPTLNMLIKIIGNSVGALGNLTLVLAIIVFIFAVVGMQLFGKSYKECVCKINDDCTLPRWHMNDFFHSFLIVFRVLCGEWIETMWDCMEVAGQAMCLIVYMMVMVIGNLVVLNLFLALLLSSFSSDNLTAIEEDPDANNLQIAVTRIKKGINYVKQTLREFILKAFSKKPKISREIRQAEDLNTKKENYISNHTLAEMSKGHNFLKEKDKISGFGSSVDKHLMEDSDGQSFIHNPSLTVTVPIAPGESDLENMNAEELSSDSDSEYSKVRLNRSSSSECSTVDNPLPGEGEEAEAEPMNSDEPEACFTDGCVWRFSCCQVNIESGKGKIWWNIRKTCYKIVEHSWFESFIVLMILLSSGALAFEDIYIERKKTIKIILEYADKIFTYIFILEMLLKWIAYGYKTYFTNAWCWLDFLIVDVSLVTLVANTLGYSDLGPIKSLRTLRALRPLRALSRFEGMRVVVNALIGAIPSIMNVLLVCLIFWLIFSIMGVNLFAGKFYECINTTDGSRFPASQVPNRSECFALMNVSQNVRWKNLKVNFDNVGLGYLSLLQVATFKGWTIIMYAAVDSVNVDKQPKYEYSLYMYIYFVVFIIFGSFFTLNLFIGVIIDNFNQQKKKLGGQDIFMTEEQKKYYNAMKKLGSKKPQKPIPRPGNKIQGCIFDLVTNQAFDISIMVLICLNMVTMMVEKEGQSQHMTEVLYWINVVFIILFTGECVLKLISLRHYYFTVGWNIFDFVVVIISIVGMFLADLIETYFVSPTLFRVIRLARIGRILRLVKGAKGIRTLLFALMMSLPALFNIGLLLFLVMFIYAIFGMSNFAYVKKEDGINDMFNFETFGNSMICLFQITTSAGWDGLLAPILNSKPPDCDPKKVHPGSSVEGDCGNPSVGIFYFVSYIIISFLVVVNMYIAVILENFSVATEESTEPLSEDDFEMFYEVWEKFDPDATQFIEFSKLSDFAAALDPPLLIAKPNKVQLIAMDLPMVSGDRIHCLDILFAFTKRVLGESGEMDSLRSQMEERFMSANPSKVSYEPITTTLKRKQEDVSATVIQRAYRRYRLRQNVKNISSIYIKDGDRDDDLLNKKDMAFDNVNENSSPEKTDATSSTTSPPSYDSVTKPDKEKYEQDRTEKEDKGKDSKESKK
T1 sequence (Q07699 19-218 partner): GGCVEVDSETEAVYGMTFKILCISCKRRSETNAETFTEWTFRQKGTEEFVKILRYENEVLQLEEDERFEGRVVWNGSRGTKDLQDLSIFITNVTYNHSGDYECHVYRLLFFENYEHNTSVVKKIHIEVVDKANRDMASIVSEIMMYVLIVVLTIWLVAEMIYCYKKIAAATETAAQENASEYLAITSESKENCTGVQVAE
T2 sequence (Q15858 1-1977 isoform Q15858-3): as the sequence (Q15858 1-1977 isoform Q15858-3) above
T2 sequence (Q07699 19-218 partner): as the sequence (Q07699 19-218 partner) above

Regarding `Cc1nn(C23CC4CC(CC(C4)C2)C3)c2cc(F)c(C(=O)NS(C)(=O)=O)cc12` [Example 36, 1-((3s,5s,7s)-adamantan-1-yl)-6-fluoro-3-methyl-N-(methylsulfonyl)-1H-indazole-5-carboxamide], the IC50 at hNav1.7 was 370 nM; against NaV1.7, 3100 nM; at NaV1.5 (human, pH 7.4), not below 30000 nM.

Consider `Cc1nn(CC23CC4CC(CC(C4)C2)C3)c2cc(F)c(C(=O)N[S@TB3](=O)(=O)N3CCC3)cc12` [Example 41, 1-(((1s,3s)-adamantan-1-yl)methyl)-N-(azetidin-1-ylsulfonyl)-6-fluoro-3-methyl-1H-indazole-5-carboxamide], for which the IC50 at hNav1.7 is 300 nM; against NaV1.7, 3400 nM; on NaV1.5 (human, pH 7.4), not below 30000 nM.

On to `Cc1nn([C@@H]2CCN(Cc3cc(Cl)ccc3C(F)(F)F)C2)c2cc(F)c(C(=O)NS(=O)(=O)C3CC3)cc12` [Example 12, (R)-1-(1-(5-chloro-2-(trifluoromethyl)benzyl)pyrrolidin-3-yl)-N-(cyclopropylsulfonyl)-6-fluoro-3-methyl-1H-indazole-5-carboxamide 2,2,2-trifluoroacetate], for which the IC50 was determined as 5 nM on hNav1.7, 32 nM at NaV1.7 and 510 nM at NaV1.5.

`Cc1nn(C2CCC(C(C)C)CC2)c2cc(F)c(C(=O)NS(C)(=O)=O)cc12` (stereo not shown) [Example 33, 6-fluoro-1-(4-isopropylcyclohexyl)-3-methyl-N-(methylsulfonyl)-1H-indazole-5-carboxamide]: the IC50 on hNav1.7 was 20 nM; at NaV1.7, 79 nM; at NaV1.5 it was 20000 nM.

Consider `Cc1nn(C2CCN([C@@H](C)c3cc(Cl)cc(Cl)c3)CC2)c2cc(F)c(C(=O)NS(=O)(=O)C3CC3)cc12` [Example 10, (S)-N-(cyclopropylsulfonyl)-1-(1-(1-(3,5-dichlorophenyl)ethyl)piperidin-4-yl)-6-fluoro-3-methyl-1H-indazole-5-carboxamide], for which the IC50 on hNav1.7 stood at 10 nM; at NaV1.7, 33 nM; on NaV1.5, 14000 nM.

On to `Cc1nn(C2CN(Cc3cc(Cl)cc(OC(F)(F)F)c3)C2)c2cc(F)c(C(=O)NS(C)(=O)=O)cc12` [Example 14, 1-(1-(3-chloro-5-(trifluoromethoxy)benzyl)azetidin-3-yl)-6-fluoro-3-methyl-N-(methylsulfonyl)-1H-indazole-5-carboxamide], for which the figures for the IC50 on hNav1.7, on NaV1.7 and at NaV1.5 were 32 nM, 400 nM and 13000 nM, respectively.

Turning to `Cc1nn(C2CCCCC2)c2cc(F)c(C(=O)NS(C)(=O)=O)cc12` [Example 38, 1-cyclohexyl-6-fluoro-3-methyl-N-(methylsulfonyl)-1H-indazole-5-carboxamide], the IC50 at hNav1.7 was 1000 nM; against NaV1.7, 11000 nM; at NaV1.5 (human, pH 7.4), not below 30000 nM.

Regarding `Cc1nn(C2CCC(C(C)C)CC2)c2cc(F)c(C(=O)NS(=O)(=O)N3CCC3)cc12` (stereo not shown) [Example 30, N-(azetidin-1-ylsulfonyl)-6-fluoro-1-(4-isopropylcyclohexyl)-3-methyl-1H-indazole-5-carboxamide], the IC50 came to 25 nM on hNav1.7 and 39 nM at NaV1.7.

For the molecule `Cc1nn(C2CCC(C(C)(C)C)CC2)c2cc(F)c(C(=O)NS(=O)(=O)N3CCC3)cc12` (stereo not shown) [Example 27, N-(azetidin-1-ylsulfonyl)-1-(4-(tert-butyl)cyclohexyl)-6-fluoro-3-methyl-1H-indazole-5-carboxamide], the IC50 on hNav1.7 amounted to 23 nM; against NaV1.7, 140 nM.

At NaV1.5 (human, pH 7.4), `Cc1nn(C2CCOCC2)c2cc(F)c(C(=O)NS(C)(=O)=O)cc12` [Example 34, 6-fluoro-3-methyl-N-(methylsulfonyl)-1-(tetrahydro-2H-pyran-4-yl)-1H-indazole-5-carboxamide] showed an IC50 not below 30000 nM.

For `Cc1nn(C2CCC(C)CC2)c2cc(F)c(C(=O)NS(=O)(=O)N3CCC3)cc12` (stereo not shown) [Example 29, N-(azetidin-1-ylsulfonyl)-6-fluoro-3-methyl-1-(4-methylcyclohexyl)-1H-indazole-5-carboxamide], the IC50 at hNav1.7 worked out at 350 nM; against NaV1.7, 1000 nM.

As for `Cc1nn(-c2ccc3c(c2)CCCC3)c2cc(F)c(C(=O)NS(C)(=O)=O)cc12` [Example 26, 6-fluoro-3-methyl-N-(methylsulfonyl)-1-(5,6,7,8-tetrahydronaphthalen-2-yl)-1H-indazole-5-carboxamide], the IC50 at hNav1.7 is 100 nM; against NaV1.7, 160 nM.

Consider `Cc1nn(-c2ccc3c(c2)CCCC3)c2cc(F)c(C(=O)NS(=O)(=O)N3CCC3)cc12` [Example 25, N-(azetidin-1-ylsulfonyl)-6-fluoro-3-methyl-1-(5,6,7,8-tetrahydronaphthalen-2-yl)-1H-indazole-5-carboxamide], for which the IC50 was 260 nM at hNav1.7 and 44 nM against NaV1.7.

As for `Cc1nn(C2CCC(C)CC2)c2cc(F)c(C(=O)NS(C)(=O)=O)cc12` (stereo not shown) [Example 31, 6-fluoro-3-methyl-1-(4-methylcyclohexyl)-N-(methylsulfonyl)-1H-indazole-5-carboxamide], the IC50 at hNav1.7 was 340 nM; against NaV1.7, 2000 nM.

As to `Cc1nn(C2CCC(C(C)(C)C)CC2)c2cc(F)c(C(=O)NS(C)(=O)=O)cc12` (stereo not shown) [Example 28, 1-(4-(tert-butyl)cyclohexyl)-6-fluoro-3-methyl-N-(methylsulfonyl)-1H-indazole-5-carboxamide], the IC50 was 47 nM on hNav1.7 and 320 nM at NaV1.7.

The molecule `Cc1nn(C2CCOCC2)c2cc(F)c(C(=O)NS(=O)(=O)N3CCC3)cc12` [Example 32, N-(azetidin-1-ylsulfonyl)-6-fluoro-3-methyl-1-(tetrahydro-2H-pyran-4-yl)-1H-indazole-5-carboxamide] returned an IC50 on NaV1.5 (human, pH 7.4) not below 30000 nM.

Values taken from US10899732B2, “Substituted benzamides useful as sodium channel blockers” (GENENTECH, INC., priority 2015, dated 2021).
